We go through 29 compounds from patent US20240150377A1, “MODULATORS OF CYSTIC FIBROSIS TRANSMEMBRANE CONDUCTANCE REGULATOR” (VERTEX PHARMACEUTICALS INCORPORATED, priority 2020, published 2024).

pEC50: −log10 of the molar value. A value given as a limit tells only on which side of the number the result lay.

What is called pEC50 is −log10 of the EC50, conventionally taken in molar units.

In this experiment the target is T1, CFTR (Homo sapiens, UniProt P13569, DEL508-508).
T1 construct: endogenous in cells; host or cells: primary human bronchial epithelial cells from CF subjects (F508del/MF-HBE), differentiated at air-liquid interface
Briefly: HBE2 assay: Ussing chamber assay of CFTR-mediated short-circuit currents. It is filed as cell-based. Particulars: F508del/MF-HBE cells, with 44 nM potentiator, 18-24 hours, 20% human serum; for Emax: read-out: HBE2 Max activity (%). Summed up: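 Corrector activity read as CFTR-dependent ISC (μA/cm^2): peak forskolin current minus post-inhibitor steady state. Measured at 37 °C, voltage clamp at 0 mV, on F508del/MF-HBE epithelia grown >14 days air-liquid interface in Ussing chambers.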

T1 sequence (P13569 with tags, fused parts or gaps DEL508-508): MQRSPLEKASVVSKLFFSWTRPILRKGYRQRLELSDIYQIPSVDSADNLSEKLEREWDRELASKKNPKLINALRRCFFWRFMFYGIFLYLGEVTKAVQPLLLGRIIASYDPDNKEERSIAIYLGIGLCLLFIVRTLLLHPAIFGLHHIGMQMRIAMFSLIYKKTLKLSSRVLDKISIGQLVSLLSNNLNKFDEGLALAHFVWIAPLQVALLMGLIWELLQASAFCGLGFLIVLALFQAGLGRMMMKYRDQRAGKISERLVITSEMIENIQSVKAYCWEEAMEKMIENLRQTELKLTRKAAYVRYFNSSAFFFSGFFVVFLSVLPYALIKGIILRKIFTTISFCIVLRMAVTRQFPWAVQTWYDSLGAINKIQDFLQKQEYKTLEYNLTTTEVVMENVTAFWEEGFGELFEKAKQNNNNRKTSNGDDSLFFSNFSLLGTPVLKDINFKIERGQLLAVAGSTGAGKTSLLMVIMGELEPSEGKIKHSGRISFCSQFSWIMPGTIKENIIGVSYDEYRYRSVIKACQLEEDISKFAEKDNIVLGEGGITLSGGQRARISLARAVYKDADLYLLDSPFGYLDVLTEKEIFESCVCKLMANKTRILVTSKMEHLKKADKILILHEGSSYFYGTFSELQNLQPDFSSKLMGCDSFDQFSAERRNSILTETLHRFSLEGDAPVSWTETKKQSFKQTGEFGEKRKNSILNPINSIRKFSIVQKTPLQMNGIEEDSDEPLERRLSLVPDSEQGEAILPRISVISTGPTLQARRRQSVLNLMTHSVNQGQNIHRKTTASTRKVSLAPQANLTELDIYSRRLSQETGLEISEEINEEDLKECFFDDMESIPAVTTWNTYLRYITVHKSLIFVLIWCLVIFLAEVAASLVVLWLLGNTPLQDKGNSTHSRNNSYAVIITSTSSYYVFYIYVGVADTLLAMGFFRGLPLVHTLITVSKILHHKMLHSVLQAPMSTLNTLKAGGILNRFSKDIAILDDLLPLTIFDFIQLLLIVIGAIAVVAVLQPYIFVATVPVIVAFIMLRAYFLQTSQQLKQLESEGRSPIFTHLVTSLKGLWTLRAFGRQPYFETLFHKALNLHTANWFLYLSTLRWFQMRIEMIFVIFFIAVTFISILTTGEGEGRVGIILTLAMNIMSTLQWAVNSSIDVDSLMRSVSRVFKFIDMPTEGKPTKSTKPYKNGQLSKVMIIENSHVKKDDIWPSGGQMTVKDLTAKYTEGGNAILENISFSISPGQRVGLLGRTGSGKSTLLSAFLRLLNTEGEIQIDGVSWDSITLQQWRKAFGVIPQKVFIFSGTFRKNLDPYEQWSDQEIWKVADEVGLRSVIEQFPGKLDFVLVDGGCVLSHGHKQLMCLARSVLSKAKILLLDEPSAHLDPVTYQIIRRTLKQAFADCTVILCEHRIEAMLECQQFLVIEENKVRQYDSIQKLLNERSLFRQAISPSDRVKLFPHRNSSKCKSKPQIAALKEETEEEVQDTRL

Regarding `Cc1cccc(C)c1-c1cc2nc(n1)NS(=O)(=O)c1cccc(c1)C(=O)N(Cc1cncc(N3CCC[C@H]3C)n1)[C@H](CC1(C)CCC1)CO2` [Compound 1743], the “HBE2 Activity at 3 μM (%)” value (3 μM corrector) is on record as “+++ (+++ is >60+)”.

As for `Cc1cccc(C)c1-c1cc2nc(n1)NS(=O)(=O)c1cccc(c1)C(=O)N(Cc1cnc3cc(C(C)C)n(C)c3n1)[C@H](CC(C)(C)C)CO2` [Compound 1756], the “HBE2 Activity at 3 μM (%)” value (3 μM corrector) is on record as “+++ (+++ is >60+)”. For the compound `CC[C@H](C)[C@@H]1COc2cc(-c3c(C)cccc3C)nc(n2)NS(=O)(=O)c2cccc(c2)C(=O)N1Cc1cncc(N(C)C2CCC2)n1` [Compound 1703], the pEC50 was over 6.00 and the Emax was over 60%. As for `Cc1cccc(C)c1-c1cc2nc(n1)NS(=O)(=O)c1cccc(c1)C(=O)N(Cc1cncc(N3CCC[C@H]3C)n1)[C@H](CC1CC(C)(C)C1)CO2` [Compound 1899], under “3 μM corrector”, the “HBE2 Activity at 3 μM (%)” value is reported as “+++ (+++ is >60+)”. The same measure, in the same setting: the same measure for `CO[C@@H](C)[C@@H]1CCCN1c1cncc(CN2C(=O)c3cccc(c3)S(=O)(=O)Nc3nc(cc(-c4c(C)cccc4C)n3)OC[C@H]2CCC(C)(C)C)n1` [Compound 1936]: “+++ (+++ is >60+)”; for `Cc1cccc(C)c1-c1cc2nc(n1)NS(=O)(=O)c1cccc(c1)C(=O)N(Cc1cncc(N(C)C3CCC3)n1)[C@@H]1CCN(CC(C)(C)C)CC1O2` (stereo in doubt) [Compound 1765]: “++ (++ is 30-60%)”. Turning to `Cc1cccc(C)c1-c1cc2nc(n1)NS(=O)(=O)c1cccc(c1)C(=O)N(Cc1cncc(N3CC[C@@H]4COC[C@@H]43)n1)[C@H](CC(C)(C)C)CO2` [Compound 1541], the pEC50 was over 6.00 and the Emax is over 60%. In the case of `Cc1cccc(C)c1-c1cc2nc(n1)NS(=O)(=O)c1cccc(c1)C(=O)N(Cc1cncc(N(C)C3CCC3)n1)[C@H](C(C)(C)C)CO2` [Compound 1732], the “HBE2 Activity at 3 μM (%)” value (3 μM corrector) is recorded as “+++ (+++ is >60+)”. For the compound `CO[C@H]1C[C@H](CN(C)c2cncc(CN3C(=O)c4cccc(c4)S(=O)(=O)Nc4nc(cc(-c5c(C)cccc5C)n4)OC[C@H]3CC(C)(C)C)n2)C1` (stereo in doubt) [Compound 1632], the negative-log EC50 (pEC50) was over 6.00 and the Emax is over 60%. Besides, the “HBE2 Activity at 3 μM (%)” value (3 μM) is “+++ (+++ is >60+)”.

Consider `Cc1cccc(C)c1-c1cc2nc(n1)NS(=O)(=O)c1cccc(c1)C(=O)N(Cc1cnc3cc(C(C)C)n(C)c3n1)[C@H](CCC(C)C)CO2` [Compound 1827], for which the “HBE2 Activity at 3 μM (%)” value (3 μM corrector) is given as “+++ (+++ is >60+)”.

Consider `COC[C@@H]1CCN1c1ccnc(CN2C(=O)c3cccc(c3)S(=O)(=O)Nc3nc(cc(-c4c(C)cccc4C)n3)OC[C@H]2CC(C)(C)C)n1` [Compound 1553], for which, under “3 μM”, the “HBE2 Activity at 3 μM (%)” value is listed as “+++ (+++ is >60+)”. `Cc1cccc(C)c1-c1cc2nc(n1)NS(=O)(=O)c1cccc(n1)C(=O)N(Cc1cncc(N(C)C3CCC3)c1)[C@H](CC(C)(C)C)CO2` [Compound 1924]: where the note is “3 μM corrector”, the “HBE2 Activity at 3 μM (%)” value is recorded as “+++ (+++ is >60+)”.

Take `Cc1cccc(C)c1-c1cc2nc(n1)NS(=O)(=O)c1cccc(c1)C(=O)N(Cc1cncc(N3CCC[C@H]3C)n1)[C@H](CC1CC1)CO2` [Compound 1787]: the “HBE2 Activity at 3 μM (%)” value (3 μM corrector) is on record as “+++ (+++ is >60+)”. As for `COC[C@H]1C[C@@H](N(C)c2cncc(CN3C(=O)c4cccc(c4)S(=O)(=O)Nc4nc(cc(-c5c(C)cccc5C)n4)OC[C@H]3CC(C)(C)C)n2)C1` [Compound 1619], the “HBE2 Activity at 3 μM (%)” value (3 μM) is listed as “+++ (+++ is >60+)”. Turning to `Cc1cccc(C)c1-c1cc2nc(n1)NS(=O)(=O)c1cccc(c1)C(=O)N(Cc1cncc(N3CCC[C@H]3C(C)C)n1)[C@H](COC1CC1)CO2` [Compound 1341, (11R)-11-(Cyclopropoxymethyl)-6-(2,6-dimethylphenyl)-12-[[6-[(2S)-2-isopropylpyrrolidin-1-yl]pyrazin-2-yl]methyl]-2,2-dioxo-9-oxa-2^6-thia-3,5,12,19-tetrazatricyclo[12.3.1.14,8]nonadeca-1(18),4(19),5,7,14,16-hexaen-13-one], the “HBE2 Activity at 3 μM (%)” value (3 μM corrector) is “+++ (+++ is >60+)”. Regarding `Cc1cccc(C)c1-c1cc2nc(n1)NS(=O)(=O)c1cccc(c1)C(=O)N(Cc1cncc(N3[C@H](C)CC[C@@H]3C)n1)[C@H](COC(C)C)CO2` [Compound 1950], the “HBE2 Activity at 3 μM (%)” value (3 μM corrector) was “+++ (+++ is >60+)”. For the compound `Cc1cccc(C)c1-c1cc2nc(n1)NS(=O)(=O)c1cccc(c1)C(=O)N(Cc1cnc3ccn(C)c3n1)[C@H](CC(C)(C)C)CO2` [Compound 1853], the “HBE2 Activity at 3 μM (%)” value (3 μM corrector) was “+++ (+++ is >60+)”. For the compound `CO[C@H]1C[C@@H](N(C)c2cncc(CN3C(=O)c4cccc(c4)S(=O)(=O)Nc4nc(cc(-c5c(C)cccc5C)n4)OC[C@H]3CC(C)(C)C)n2)C1` [Compound 1611], the “HBE2 Activity at 3 μM (%)” value (3 μM) was “+++ (+++ is >60+)”. Regarding `Cc1cccc(C)c1-c1cc2nc(n1)NS(=O)(=O)c1cccc(c1)C(=O)N(Cc1cncc(N3CCCC4CCC43)n1)[C@H](CCC(C)(C)C)CO2` (stereo in doubt) [Compound 1781], the “HBE2 Activity at 3 μM (%)” value (3 μM corrector) was “+++ (+++ is >60+)”. As for `Cc1cccc(C)c1-c1cc2nc(n1)NS(=O)(=O)c1cccc(c1)C(=O)N(Cc1cncc(N3CCO[C@@H](C)[C@H]3C)n1)[C@H](CC(C)(C)C)CO2` (stereo in doubt) [Compound 1760], for the setting “3 μM corrector”, the “HBE2 Activity at 3 μM (%)” value is on record as “+++ (+++ is >60+)”. Take `Cc1cccc(C)c1-c1cc2nc(n1)NS(=O)(=O)c1cccc(c1)C(=O)N(Cc1cncc(N3CCCC3c3ccnn3C)n1)[C@H](CC(C)(C)C)CO2` (some centres unmarked) [Compound 1605]: the “HBE2 Activity at 3 μM (%)” value (3 μM) is “+++ (+++ is >60+)”. Take `Cc1cccc(C)c1-c1cc2nc(n1)NS(=O)(=O)c1cccc(c1)C(=O)N(Cc1cnc3cc(C(C)C)n(C)c3n1)[C@H](CCC(C)(C)C)CO2` [Compound 1826]: the “HBE2 Activity at 3 μM (%)” value (3 μM corrector) is given as “+++ (+++ is >60+)”. Regarding `COCCN(C)c1nc(CN2C(=O)c3cccc(c3)S(=O)(=O)Nc3nc(cc(-c4c(C)cccc4C)n3)OC[C@H]2CC(C)(C)C)co1` [Compound 1409], the “HBE2 Activity at 3 μM (%)” value (3 μM) is reported as “+++ (+++ is >60+)”. With `CC[C@@H](C)N(C)c1cncc(CN2C(=O)c3cccc(c3)S(=O)(=O)Nc3nc(cc(-c4c(C)cccc4C)n3)OC[C@H]2CC(C)(C)C)n1` (stereo in doubt) [Compound 1672], the pEC50 was over 6.00 and the Emax was over 60%. Also, the “HBE2 Activity at 3 μM (%)” value (3 μM) is reported as “+++ (+++ is >60+)”. For the compound `Cc1cccc(C)c1-c1cc2nc(n1)NS(=O)(=O)c1cccc(c1)C(=O)N(Cc1cncc(N(C)[C@H]3CC[C@@H]3C)n1)[C@H](CC(C)(C)C)CO2` (stereo in doubt) [Compound 1773], the “HBE2 Activity at 3 μM (%)” value (3 μM corrector) is given as “+++ (+++ is >60+)”.

Consider `Cc1cccc(C)c1-c1cc2nc(n1)NS(=O)(=O)c1cccc(c1)C(=O)N(Cc1ncc(N3CCC(F)(F)C3)cn1)[C@H](CC1(C)CC1)CO2` [Compound 1548], for which the “HBE2 Activity at 3 μM (%)” value (3 μM) is “+++ (+++ is >60+)”.

For the compound `Cc1cccc(C)c1-c1cc2nc(n1)NS(=O)(=O)c1cccc(c1)C(=O)N(Cc1cccc(N3CCC[C@H]3C)n1)[C@H](CC1(C)CC1)CO2` [Compound 1569], for the setting “3 μM”, the “HBE2 Activity at 3 μM (%)” value is recorded as “+++ (+++ is >60+)”. For the compound `Cc1cccc(C)c1-c1cc2nc(n1)NS(=O)(=O)c1cccc(c1)C(=O)N(Cc1cncc(N3CC[C@@H]3C(C)C)n1)[C@H](CC1CCCCC1)CO2` (stereo in doubt) [Compound 1887], the “HBE2 Activity at 3 μM (%)” value (3 μM corrector) is “+++ (+++ is >60+)”.

Consider `Cc1cccc(C)c1-c1cc2nc(n1)NS(=O)(=O)c1cccc(c1)C(=O)N(Cc1cncc(N3CCCC4CCC43)n1)[C@H](CC1CC1)CO2` (stereo in doubt) [Compound 1838], for which the “HBE2 Activity at 3 μM (%)” value (3 μM corrector) is reported as “+++ (+++ is >60+)”.
